Measurements from the NIST ThermoML archive (doi:10.1021/je0340755).

Test: xn = mol fraction of the nth substance listed
Conditions: 101.3 kPa, Liquid; for viscosity: Capillary tube (Ostwald / Ubbelohde) method

CC(O)C(C)O (configuration not stated) [2,3-butanediol] + O
Conditions | mass density, 298.15 K [kg/m3] | mass density, 308.15 K [kg/m3] | mass density, 318.15 K [kg/m3] | speed of sound, 298.15 K [m/s] | speed of sound, 308.15 K [m/s] | speed of sound, 318.15 K [m/s] | viscosity, 298.15 K [mPa·s] | viscosity, 308.15 K [mPa·s] | viscosity, 318.15 K [mPa·s]
x2 = 0.0546 | 999.76 | 993.26 | 985.33 | 1483 | 1446.8 | 1418.4 | 41.89 | 21.57 | 12.04
x2 = 0.1435 | 1001.87 | 995.29 | 987.34 | 1501.3 | 1464.7 | 1436 | 36.73 | 19.07 | 10.64
x2 = 0.2458 | 1004.58 | 997.92 | 989.9 | 1520.7 | 1483.6 | 1454.5 | 30.5 | 16.07 | 8.953
x2 = 0.3539 | 1007.87 | 1001.1 | 993.04 | 1548.5 | 1510.7 | 1481.1 | 24.04 | 12.95 | 7.207
x2 = 0.4502 | 1011.19 | 1004.34 | 996.28 | 1576.9 | 1538.4 | 1508.2 | 18.63 | 10.32 | 5.737
x2 = 0.4989 | 1013.01 | 1006.11 | 998.08 | 1589.5 | 1550.7 | 1520.3 | 16.08 | 9.06 | 5.036
x2 = 0.5503 | 1014.99 | 1008.06 | 1000.07 | 1604.9 | 1565.8 | 1535.1 | 13.54 | 7.8 | 4.339
x2 = 0.6581 | 1019.13 | 1012.2 | – | 1637.2 | 1597.3 | – | 8.918 | 5.443 | 3.047
x2 = 0.7518 | 1021.95 | 1015.17 | – | 1667.8 | 1627.1 | – | 5.811 | 3.773 | 2.15
x2 = 0.8626 | 1021.36 | 1015.24 | – | 1673.2 | 1632.4 | – | 3.267 | 2.265 | 1.37
x2 = 0.9092 | 1017.89 | 1012.39 | – | 1657.9 | 1617.5 | – | 2.463 | 1.743 | 1.108
x2 = 0.9148 | 1017.25 | 1011.85 | – | 1651.5 | 1611.2 | – | 2.372 | 1.682 | 1.078
x2 = 0.9248 | 1015.95 | 1010.74 | – | 1645.4 | 1605.3 | – | 2.21 | 1.574 | 1.025
x2 = 0.9305 | 1015.11 | 1010.02 | – | 1640.3 | 1600.3 | – | 2.118 | 1.512 | 0.995
x2 = 0.935 | 1014.4 | 1009.4 | – | – | 1597.2 | – | 2.044 | 1.463 | 0.969
x2 = 0.9452 | 1012.61 | 1007.83 | – | – | 1588.3 | – | 1.878 | 1.352 | 0.915
x2 = 0.9542 | 1010.78 | 1006.24 | – | 1616.9 | 1577.5 | – | 1.729 | 1.254 | 0.866
x2 = 0.9703 | 1006.89 | 1002.81 | – | – | 1570.9 | – | 1.453 | 1.074 | 0.775
x2 = 0.98 | 1004.1 | 1000.33 | – | – | 1557.9 | – | 1.278 | 0.962 | 0.719
x2 = 0.9903 | 1000.7 | 997.3 | – | – | 1547.6 | – | 1.083 | 0.839 | 0.657
x2 = 0.9925 | 999.91 | 996.59 | – | – | 1543.9 | – | 1.04 | 0.812 | 0.644
x2 = 0.9951 | 998.95 | 995.73 | – | 1577.9 | 1539.4 | – | 0.99 | 0.779 | 0.627
